Results: PMC10227015, “From a drug repositioning to a structure-based drug design approach to tackle acute lymphoblastic leukemia” (Nature Communications, 2023)

What was measured:
Type in all cases: cell-based, human
CCRF-CEM cells [1] = experiment: γH2A.X measurements (DNA damage); details: 24 h, dT 200 µM, others 1 µM, presence of dC
Protocol: (§1) CCRF-CEM cells were seeded at 100,000 cells/ml, and treated with DMSO (0.01%) as vehicle control or dT (200 μΜ), and/or dC, OR0642, DI-87 and DI-39 (1 μΜ). For cell cycle analysis, cells were harvested after 24 h, fixed in 4% paraformaldehyde, permeabilized with 0.15% Triton X100, and DNA content was determined using 1 μg/ml DAPI. For apoptosis assay, cells were harvested after 72 h and cell death was assayed using Annexin V-APC and 7AAD following manufacturer’s instructions (Biolegend, 640930). For γH2A.X measurements, cells were harvested after 24 h, fixed in 4% paraformaldehyde and permeabilized with 0.15% Triton X100. Then, cells were stained with the phospho-H2AX (pS139 H2AX, Biolegend, 613402, 1:1000) specific primary antibody, Alexa-Fluor 488 secondary antibody (ThermoFisher, A21202, 1:1000) and DAPI. All acquisitions were performed on a BD Fortessa cytometer, and analysis of flow cytometry data was performed using FlowJo™ Software 10.7.1 (BD Life Sciences). Each experiment was performed three times. Figures exemplifying the gating strategy are provided in the Supplementary Information (Supplementary Figs. 29–31).
Cells were seeded, treated and stained as described for flow cytometry analysis, and then spread on a microscope slide using cytospin. Slides were mounted with […] mounting medium with DAPI (Vector Laboratories). […]

CCRF-CEM cells [2] = experiment: Annexin V apoptosis assay; details: 72 h, dT 200 µM, others 1 µM, presence of dC
Protocol: as §1

PDX UPNT486 = experiment: Ex vivo testing on PDX samples (viability, flow cytometry, 72 h)
From the text: (§2) Bone marrow-infiltrating blasts from terminally mice bearing PDX as stated above were collected as established before. Extensive analysis (immunophenotype and molecular analysis) of matched primary and PDX samples used in the study are shown in Supplementary Table 7, showing that they remain stable. Briefly, after euthanasia, bone marrows from tibiae, hips, femurs, and vertebrae were isolated and blasts collected for subsequent ex vivo experiments. All samples used contained ≥90% blasts as determined by flow cytometry. For the cytotoxic evaluation of OR0642, blasts were then stained with CellTraceTM Violet (CTV, Thermo Fisher Scientific, C34557) prior seeding at 10,000 cells into 96-well plates under normal conditions or pre-plated with OP9-DL1 cells. Cells were cultured in RPMI 1640 supplemented with 20% fetal bovine serum, 50 µg/ml streptomycin, 50 UI penicillin, 4 mM L-glutamine, and a cocktail of human cytokines as previously established (50 ng/ml human stem cell factor, 20 ng/ml hFLT3-L, 10 ng/ml hIL-7 and 20 nM insulin (Miltenyi Biotec))[28]. […] Rescue by dC supplementation (1 µM) was also evaluated. OR0642 was then tested alone, or combined with dT or dT + dC at two concentrations (0.25 and 0.5 µM). Cell viability was evaluated by flow cytometry 72 h post-treatment. Proliferation indexes were calculated using the detection of CTV in the control replicates (DMSO) and the proliferation modeling tool of FlowJo™ Software 10.7.1 (BD Life Sciences). A control peak of undivided CTV-stained cells was systematically used to set the undivided fraction.

PDX UPNT885 = experiment: as above
From the text: as §2

PDX UPNT775 = experiment: as above
From the text: as §2

PDX UPNT489 = experiment: as above
From the text: as §2

PDX UPNT380 = experiment: as above
From the text: as §2

PDX UPNTAGG = experiment: as above
From the text: as §2

PDX UPNT615 = experiment: as above
From the text: as §2

PDX UPNT525 = experiment: as above
From the text: as §2

Question: `CCCN(c1nc(-c2nc(N)cc(N)n2)cs1)c1cc(-c2ccc(S(=O)(=O)N3CCN(C)CC3)cc2C(F)(F)F)ccc1C` [OR0642] was tested. Which “DNA damage, γH2A.X” value (CCRF-CEM cells [1]) did it give?
Answer: neither dT nor OR0642 alone induced DNA damage or apoptosis

Question: What about the “apoptosis, Annexin V staining” value (CCRF-CEM cells [2]) of the same molecule?
Answer: neither dT nor OR0642 alone induced DNA damage or apoptosis

Question: Which “DNA damage, γH2A.X” value (CCRF-CEM cells [1]) does the source give for `Cc1cn([C@H]2C[C@H](O)[C@@H](CO)O2)c(=O)[nH]c1=O` [dT, thymidine] here?
Answer: neither dT nor OR0642 alone induced DNA damage or apoptosis

Question: What about the “apoptosis, Annexin V staining” value (CCRF-CEM cells [2]) of the same molecule?
Answer: neither dT nor OR0642 alone induced DNA damage or apoptosis

Question: What about the viability at 12 µM (PDX UPNT486; Homo sapiens, UPNT486, dT 12 µM, read-out: Cell viability, Mean (% viab)) of the same molecule?
Answer: 99.7%

Question: And the viability at 37 µM (PDX UPNT486; Homo sapiens, UPNT486, dT 37 µM, read-out: Cell viability, Mean (% viab))?
Answer: 95%

Question: And the viability at 111 µM (PDX UPNT486; Homo sapiens, UPNT486, dT 111 µM, read-out: Cell viability, Mean (% viab))?
Answer: 90.6%

Question: And the viability at 333 µM (PDX UPNT486; Homo sapiens, UPNT486, dT 333 µM, read-out: Cell viability, Mean (% viab))?
Answer: 100%

Question: What about the viability at 1000 µM (PDX UPNT486; Homo sapiens, UPNT486, dT 1000 µM, read-out: Cell viability, Mean (% viab)) of the same molecule?
Answer: 90.2%

Question: What about the viability at 3000 µM (PDX UPNT486; Homo sapiens, UPNT486, dT 3000 µM, read-out: Cell viability, Mean (% viab)) of the same molecule?
Answer: 77.6%

Question: What about the “Response at dT100 µM” value (PDX UPNT486; PDX 486, dT 100 µM) of the same molecule?
Answer: 31

Question: What about the viability at 12 µM (PDX UPNT885; Homo sapiens, UPNT885, dT 12 µM, read-out: Cell viability, Mean (% viab)) of the same molecule?
Answer: 100%

Question: And the viability at 37 µM (PDX UPNT885; Homo sapiens, UPNT885, dT 37 µM, read-out: Cell viability, Mean (% viab))?
Answer: 85.3%

Question: And the viability at 111 µM (PDX UPNT885; Homo sapiens, UPNT885, dT 111 µM, read-out: Cell viability, Mean (% viab))?
Answer: 65.1%

Question: And the viability at 333 µM (PDX UPNT885; Homo sapiens, UPNT885, dT 333 µM, read-out: Cell viability, Mean (% viab))?
Answer: 49.5%

Question: What about the viability at 1000 µM (PDX UPNT885; Homo sapiens, UPNT885, dT 1000 µM, read-out: Cell viability, Mean (% viab)) of the same molecule?
Answer: 44.3%

Question: What about the viability at 3000 µM (PDX UPNT885; Homo sapiens, UPNT885, dT 3000 µM, read-out: Cell viability, Mean (% viab)) of the same molecule?
Answer: 39.5%

Question: What about the “Response at dT100 µM” value (PDX UPNT885; PDX 885, dT 100 µM) of the same molecule?
Answer: 49

Question: And the viability at 12 µM (PDX UPNT775; Homo sapiens, UPNT775, dT 12 µM, read-out: Cell viability, Mean (% viab))?
Answer: 100%

Question: What about the viability at 37 µM (PDX UPNT775; Homo sapiens, UPNT775, dT 37 µM, read-out: Cell viability, Mean (% viab)) of the same molecule?
Answer: 86.3%

Question: And the viability at 111 µM (PDX UPNT775; Homo sapiens, UPNT775, dT 111 µM, read-out: Cell viability, Mean (% viab))?
Answer: 53.9%

Question: What about the viability at 333 µM (PDX UPNT775; Homo sapiens, UPNT775, dT 333 µM, read-out: Cell viability, Mean (% viab)) of the same molecule?
Answer: 40.5%

Question: What about the viability at 1000 µM (PDX UPNT775; Homo sapiens, UPNT775, dT 1000 µM, read-out: Cell viability, Mean (% viab)) of the same molecule?
Answer: 36%

Question: And the viability at 3000 µM (PDX UPNT775; Homo sapiens, UPNT775, dT 3000 µM, read-out: Cell viability, Mean (% viab))?
Answer: 36.7%

Question: And the “Response at dT100 µM” value (PDX UPNT775; PDX 775, dT 100 µM)?
Answer: 63

Question: And the viability at 12 µM (PDX UPNT489; Homo sapiens, UPNT489, dT 12 µM, read-out: Cell viability, Mean (% viab))?
Answer: 100%

Question: And the viability at 37 µM (PDX UPNT489; Homo sapiens, UPNT489, dT 37 µM, read-out: Cell viability, Mean (% viab))?
Answer: 94.6%

Question: What about the viability at 111 µM (PDX UPNT489; Homo sapiens, UPNT489, dT 111 µM, read-out: Cell viability, Mean (% viab)) of the same molecule?
Answer: 87%

Question: What about the viability at 333 µM (PDX UPNT489; Homo sapiens, UPNT489, dT 333 µM, read-out: Cell viability, Mean (% viab)) of the same molecule?
Answer: 78.3%

Question: And the viability at 1000 µM (PDX UPNT489; Homo sapiens, UPNT489, dT 1000 µM, read-out: Cell viability, Mean (% viab))?
Answer: 71.4%

Question: What about the viability at 3000 µM (PDX UPNT489; Homo sapiens, UPNT489, dT 3000 µM, read-out: Cell viability, Mean (% viab)) of the same molecule?
Answer: 66.9%

Question: And the “Response at dT100 µM” value (PDX UPNT489; PDX 489, dT 100 µM)?
Answer: 39

Question: What about the viability at 12 µM (PDX UPNT380; Homo sapiens, UPNT380, dT 12 µM, read-out: Cell viability, Mean (% viab)) of the same molecule?
Answer: 100%

Question: What about the viability at 37 µM (PDX UPNT380; Homo sapiens, UPNT380, dT 37 µM, read-out: Cell viability, Mean (% viab)) of the same molecule?
Answer: 85.4%

Question: And the viability at 111 µM (PDX UPNT380; Homo sapiens, UPNT380, dT 111 µM, read-out: Cell viability, Mean (% viab))?
Answer: 79.4%

Question: And the viability at 333 µM (PDX UPNT380; Homo sapiens, UPNT380, dT 333 µM, read-out: Cell viability, Mean (% viab))?
Answer: 76.9%

Question: And the viability at 1000 µM (PDX UPNT380; Homo sapiens, UPNT380, dT 1000 µM, read-out: Cell viability, Mean (% viab))?
Answer: 70.3%

Question: What about the viability at 3000 µM (PDX UPNT380; Homo sapiens, UPNT380, dT 3000 µM, read-out: Cell viability, Mean (% viab)) of the same molecule?
Answer: 67.7%

Question: And the “Response at dT100 µM” value (PDX UPNT380; PDX 380, dT 100 µM)?
Answer: 27

Question: And the viability at 12 µM (PDX UPNTAGG; Homo sapiens, UPNTAGG, dT 12 µM, read-out: Cell viability, Mean (% viab))?
Answer: 100%

Question: And the viability at 37 µM (PDX UPNTAGG; Homo sapiens, UPNTAGG, dT 37 µM, read-out: Cell viability, Mean (% viab))?
Answer: 87.6%

Question: What about the viability at 111 µM (PDX UPNTAGG; Homo sapiens, UPNTAGG, dT 111 µM, read-out: Cell viability, Mean (% viab)) of the same molecule?
Answer: 82.2%

Question: What about the viability at 333 µM (PDX UPNTAGG; Homo sapiens, UPNTAGG, dT 333 µM, read-out: Cell viability, Mean (% viab)) of the same molecule?
Answer: 73.3%

Question: What about the viability at 1000 µM (PDX UPNTAGG; Homo sapiens, UPNTAGG, dT 1000 µM, read-out: Cell viability, Mean (% viab)) of the same molecule?
Answer: 65.7%

Question: What about the viability at 3000 µM (PDX UPNTAGG; Homo sapiens, UPNTAGG, dT 3000 µM, read-out: Cell viability, Mean (% viab)) of the same molecule?
Answer: 58.6%

Question: And the “Response at dT100 µM” value (PDX UPNTAGG; PDX AGG, dT 100 µM)?
Answer: 38

Question: What about the viability at 12 µM (PDX UPNT615; Homo sapiens, UPNT615, dT 12 µM, read-out: Cell viability, Mean (% viab)) of the same molecule?
Answer: 100%

Question: What about the viability at 37 µM (PDX UPNT615; Homo sapiens, UPNT615, dT 37 µM, read-out: Cell viability, Mean (% viab)) of the same molecule?
Answer: 84.7%

Question: What about the viability at 111 µM (PDX UPNT615; Homo sapiens, UPNT615, dT 111 µM, read-out: Cell viability, Mean (% viab)) of the same molecule?
Answer: 78.6%

Question: And the viability at 333 µM (PDX UPNT615; Homo sapiens, UPNT615, dT 333 µM, read-out: Cell viability, Mean (% viab))?
Answer: 73.6%

Question: And the viability at 1000 µM (PDX UPNT615; Homo sapiens, UPNT615, dT 1000 µM, read-out: Cell viability, Mean (% viab))?
Answer: 67.2%

Question: And the viability at 3000 µM (PDX UPNT615; Homo sapiens, UPNT615, dT 3000 µM, read-out: Cell viability, Mean (% viab))?
Answer: 66.7%

Question: What about the “Response at dT100 µM” value (PDX UPNT615; PDX 615, dT 100 µM) of the same molecule?
Answer: 31

Question: And the viability at 37 µM (PDX UPNT525; Homo sapiens, UPNT525, dT 37 µM, read-out: Cell viability, Mean (% viab))?
Answer: 99.5%

Question: And the viability at 111 µM (PDX UPNT525; Homo sapiens, UPNT525, dT 111 µM, read-out: Cell viability, Mean (% viab))?
Answer: 67.8%

Question: And the viability at 333 µM (PDX UPNT525; Homo sapiens, UPNT525, dT 333 µM, read-out: Cell viability, Mean (% viab))?
Answer: 44.3%

Question: What about the viability at 1000 µM (PDX UPNT525; Homo sapiens, UPNT525, dT 1000 µM, read-out: Cell viability, Mean (% viab)) of the same molecule?
Answer: 30.6%

Question: And the viability at 3000 µM (PDX UPNT525; Homo sapiens, UPNT525, dT 3000 µM, read-out: Cell viability, Mean (% viab))?
Answer: 24.9%

Question: And the “Response at dT100 µM” value (PDX UPNT525; PDX 525, dT 100 µM)?
Answer: 44
